Data published in patent US5629340A, “Angiogenesis inhibitor and novel compound” (Tsumura & Co., priority 1993, dated 1997).
Where two headings read alike, the source gives them in different places.

Key:
[1] = system: HOME cells (human omental capillary endothelial cells); assay: Migration of wounded HOME cells (wound healing model), with or without TGFα; assay type: cell-based; set-up: activity: dose or concentration left out as unconfirmed; details: Endothelial cell; for activity: 24 h, compound added, read-out: Cell-migration rate (% of non-treatment group); for inhibition at 10 µg/mL: TGFα-free medium, final concentration 10 μg/ml, approximately
Text: (§1) An in-vitro angiogenesis models have been established, using human omental capillary endothelial cells (hereinafter referred to as "HOME cells"). One is the angiogenesis models in a process of wound healing formed when the HOME cells are damaged with a razor blade. Another one is a model of HOME cell migration, synthesis of a tissue plasminogen activation factor (t-PA), and HOME-cell tube formation, accelerated by TGFα.
Compound(s) as an active ingredient of the angiogenesis inhibitor of the present invention (hereinafter also simply refer:red to as "compound(s)") were evaluated with respect to an activity to cell migration with human HOME cells in which a wound healing had been made by a razor blade, and cell migration activity accelerated by TGFα.
The HOME cells to be used in this experiment were isolated from human omental fatty tissues and cultured in a M-199 medium containing 10% fetal bovine serum (FBS) over 3 to 5 generations.
TGFα was obtained from Collaborative Research Inc., Bedford, Ma.
The HOME cells were cultured as a monolayer on a collagen-coated plastic dish (35 mm .phi.) to confluent. The thus obtained HOME cells were wounded with a razor blade and then washed twice with a phosphate buffer saline solution (PBS). […] Further, HOME cells were cultured in 1% human serum containing M-199 medium with neither active ingredient nor TGFα at 37° C for 24 hours to prepare a non-treatment group.
On the dish on which the HOME cells were cultured, the numbers of migrated HOME cells were counted, which migrated to the exposed portion of the Collagen-coated plastic dish. A cell-migration rate was calculated, regarding the cell migration numbers of the non-treatment group as 100%.

[2] = system: HOME cells (human omental capillary endothelial cells); assay: Tube formation of HOME cells induced by TGFα on type-1 collagen gel; assay type: cell-based; details: for Tube formation remaining (%) at 10 µg/mL: Homo sapiens, Endothelial cell, final concentration 10 μg/ml, read-out: inhibition of tube formation induced by TGFα ("inhibited to"); for Total length of lumen/HPF: Table 7, non-treatment 0.551, control 1.561; for Total length of lumen/HPF / Total tube length/HPF: compound 10 μg/ml, TGFα 10 ng/ml, 3 days; for Total tube length/HPF: Table 6, non-treatment 0.616, control 2.045
Text: as §1
The activity of the active ingredients to the tube formation of the HOME cells induced by TGFα was determined.
At first, 8 volume of a type 1 collagen solution (manufactured by Nitta Gelatin .), 1 volume of 10×M-199 and 1 volume of a reconstituted buffer) [200 mM Hepes, 0.05N sodium hydroxide and 260 mM sodium hydrogen carbonate] were mixed under ice cooling. The mixture was placed on plastic dishes (30 mm diameter, manufactured by Corning.) and allowed to stand still at 37° C. to make gel, thereby preparing a type-1 collagen gel.
Subsequently, the HOME cells were suspended in 10% FBS containing M-199 medium and then dispersed on the type 1 collagen gel mentioned above and incubated at 37° C.
When the HOME cells were incubated to confluent , they were transferred to 1% human serum containing M-199 mediums to which compounds (1), (2) and (4) to (12) (a final concentration: 10 μg/ml) were individually added together with TGFα (final concentration 10 ng/ml). These mediums were incubated for 3 days.
The HOME cells were also transferred to a 1% human serum containing M-199 medium with TGFα alone to prepare a control group and transferred to a 1% human serum containing M-199 medium to prepare a non-treatment group. They were also incubated for 3 days.
Two days after the incubation started, the culture mediums were exchanged. At three days, photographic picture of each dish was taken by a video camera (R5000H, Fuji, Tokyo), using a phase-contrast microscope at 200 magnification of the object. 8 views were taken for each dishes. The total tube length per one view formed by the HOME cells was measured by using a Cosmozone IS image analyzer (manufactured by Nikon).

[3] = system: HOME cells co-cultured with human esophagus cancer cells (TE-1); assay: Tube formation of HOME cells induced by human cancer cells (co-culture with TE-1 cells); assay type: cell-based; details: Table 8; compound 10 μg/ml; TE-1 co-culture; non-treatment 0.348, control 1.551
Description: In a co-culture of the HOME cells and human cancer cells, the activity of the compounds to the tube formation of the HOME cells induced by the human cancer cells was determined. This experiment was carried out in accordance with the co-culture method described in Morisaki, Saito, et al., "Co-culture test system of vascular endothelial cells and tunica media smooth muscle cells".
The HOME cells on the type-1 collagen gel prepared in Experiment 2 and human esophagus cancer cells (TE-1) were co-cultured to assemble a tube formation assay system. More specifically, using a plate (manufactured by Corning Co.,) having 6 holes (each hole size: 38×7 mm) in the outer vessel, 2 ml of 10% FBS containing M-199 medium was placed to each hole. The TE-1 cells were cultured in this medium. Thereafter, the medium was replaced with 2 ml of 1% FBS containing M-199 mediums which respectively contained compounds (1) and (8). Also, the medium was replaced with 1% FBS containing M-199 medium alone.
On the other hand, culture plates equipped with a Millipore filter at the inner vessel (size: 30×7 mm) bottom, were prepared. The type-1 collagen gel was placed in the inner vessel. On each of the type-1 collagen gel, 2 ml of the HOME cells suspension in the 10% FBS containing M-199 medium were planted. […]
The total tube length in the HOME cells cultured was measured in the same manner as in Experiment 2.

[4] = system: M-5076 (mouse ovarian reticulo sarcoma); assay: In-vivo anti-tumor activity, M-5076 transplanted in C57BL6 mouse; details: for Relative tumor proliferation rate (Trv/Crv(%)): day 21, control 100.0; for anti-tumor activity in vivo: in words
Description: In-vivo anti-tumor activity of the compounds of the present invention was tested.
M-5076 (mouse ovarian reticulo sarcoma, mouse ovary cancer) was intraperitoneally (i.p.) inoculated in C57BL6 mouse, and maintained by ip passage. The obtained ascites tumor cells werediluted with PBS (-) to cellular number of 2×10^7 cells/ml. 50 μl of the dilute solution (cellular number: 1×10^6) was subcutaneously (s.c.) transplanted to the right dorsal part of C57BL6 mouse (6 week old, female). From 7 days after the tumor cell inocutation, a sample was administrated to the mouse. The sample was prepared by suspending compounds (1) and (8) in 2% Tween 80 PBS (-) solution. The suspension was subcutaneously injected to a mouse in a dose of 100 μl per mouse. Three dosages, i.e., 400 mg/kg, 200 mg/kg and 100 mg/kg were set for the injection.
Mitomycin C (MMC) and Fumagillin Were employed in positive controls. MMC was intravascularly injected 4 times every two day. Other test samples and Fumagillin were intravascularly injected 6 times in total in a rate of 3 times/week. The test was carried out using N=9 in controls and N=5 in other groups.
Twenty one days after the inocutation of the tumor cells (14 days after the next day of the initiation of the sample injection), a relative tumor proliferation rate were examined to determine the anti-tumor effect of the samples.
The relative tumor proliferation rate are indicated by the following equation.
A significant difference test was performed by the Mann-Whitney U-Test. [formula]

[5] = 100 mg/kg, 6 injections, 3 times/week
[6] = 200 mg/kg, 6 injections, 3 times/week
[7] = 400 mg/kg, 6 injections, 3 times/week

Structure (SMILES) | activity ([1]; TGFα Free) [%] | activity ([1]; TGFα added) [%] | Tube formation remaining (%) at 10 µg/mL [2] [%] | Total length of lumen/HPF [2] | Total tube length/HPF [2] | also measured
Cc1c(-c2ccc(O)c(O)c2)oc(-c2ccc(O)c(O)c2)c1C [Compound 3, 3,4-dimethyl-2,5-bis(3,4-dihydroxyphenyl)furan] | 52.7 | 73.1 |  |  |  | 
CCOC(=O)c1c(-c2ccc(O)c(OC)c2)oc(-c2ccc(O)c(OC)c2)c1C(=O)OCC [Compound 12, Diethyl 2,5-bis(4'-hydroxy-3'-methoxyphenyl)furan-3,4-dicarboxylate] | 72.7 | 58.4 | 50 to 80 | 0.736 10^3 μm |  | 
Cc1c(-c2ccc3c(c2)OCO3)oc(-c2ccc3c(c2)OCO3)c1C [Compound 6, 3,4-dimethyl-2,5-bis(3,4-methylenedioxyphenyl)-furan] | 45.2 | 59.9 | 40 to 60 |  | 1.240 10^3 μm | inhibition at 10 µg/mL [1]: 50 to 86%
COc1cc(-c2oc(-c3ccc(OC(C)=O)c(OC)c3)c(C)c2C)ccc1OC(C)=O [Compound 4] | 50.2 | 60.4 |  |  | 2.127 10^3 μm | 
COc1ccc(-c2oc(-c3ccc(OC)c(O)c3)c(C)c2C)cc1O [Compound 8, 2,5-bis(3'-hydroxyl-4'-methoxyphenl)-3,4-dimethylfuran] | 69.4 | 44.2 | 50 to 80 | 0.422 10^3 μm |  | Total length of lumen/HPF [3]: 0.277 10^3 μm; inhibition at 10 µg/mL [1]: 50 to 86%; Relative tumor proliferation rate (Trv/Crv(%)) [4, 5]: 59.4%; Relative tumor proliferation rate (Trv/Crv(%)) [4, 6]: 41.4%; Relative tumor proliferation rate (Trv/Crv(%)) [4, 7]: 37.4%; anti-tumor activity in vivo [4]: significant anti-tumor activity in vivo
COc1ccc(-c2oc(-c3ccc(OC)c(OC)c3)c(C)c2C)cc1OC [Compound 2] | 69 | 68.2 | 40 to 60 |  | 1.115 10^3 μm | 
COc1cc(-c2oc(-c3ccc(O)c(OC)c3)c(C)c2C)ccc1O [Compound 1] | 13.9 | 24 | 50 to 80 | 0.337 10^3 μm |  | Total length of lumen/HPF [3]: 0.250 10^3 μm; inhibition at 10 µg/mL [1]: 50 to 86%; Relative tumor proliferation rate (Trv/Crv(%)) [4, 5]: 37.1%; Relative tumor proliferation rate (Trv/Crv(%)) [4, 6]: 37.4%; Relative tumor proliferation rate (Trv/Crv(%)) [4, 7]: 51.3%; anti-tumor activity in vivo [4]: significant anti-tumor activity in vivo
CO[C@@H]1[C@H](OC(=O)/C=C/C=C/C=C/C=C/C(=O)O)CC[C@]2(CO2)[C@H]1[C@@]1(C)O[C@@H]1CC=C(C)C [Fumagillin, reference compound] |  |  |  |  |  | Relative tumor proliferation rate (Trv/Crv(%)) ([4]; 30 mg/kg, 6 injections, 3 times/week): 41.7%
COc1cc(-c2oc(C)c(-c3ccc(O)c(OC)c3)c2C)ccc1O [Compound 9, 2,4-bis(4-hydroxy-3-methoxyphenyl)-3,5-dimethylfuran] | 63.3 | 73 | 50 to 80 | 0.496 10^3 μm |  | 
CO[C@@]12[C@H](COC(N)=O)C3=C(C(=O)C(C)=C(N)C3=O)N1C[C@@H]1N[C@@H]12 [MMC, Mitomycin C, reference compound] |  |  |  |  |  | Relative tumor proliferation rate (Trv/Crv(%)) ([4]; 3.2 mg/kg, intravascular, 4 times every two days): 7.9%
COc1cc(-c2oc(-c3cc(OC)c(O)c(OC)c3)c(C)c2C)cc(OC)c1O [Compound 11, 2,5-bis(4'-hydroxy-3',5'-dimethoxyphenyl)-3,4-dimethylfuran] | 81.2 | 56.1 | 50 to 80 | 0.817 10^3 μm |  | 
Cc1c(-c2ccc3c(c2)OCCO3)oc(-c2ccc3c(c2)OCCO3)c1C [Compound 7, 3,4-dimethyl-2,5-bis(3,4-ethylenedioxyphenyl)furan] | 33.3 | 31.4 | 40 to 60 |  | 1.195 10^3 μm | 
COc1cc(-c2oc(-c3ccc(O)c(OC)c3)c(CC(C)C)c2CC(C)C)ccc1O [Compound 10, 2,5-bis(4'-hydroxy-3'-methoxyphenyl)-3,4-diisobutylfuran] |  |  | 50 to 80 | 0.655 10^3 μm |  | 
